In brackets after ≈: the same amount, converted by molar mass. Where two headings read alike, the source gives them in different places.
Key:
[1] = system: S. aureus ATCC 6538; test: MIC determination, reference strain (microdilution); assay type: cell-based; conditions: Staphylococcus aureus, ATCC6538; S. aureus ATCC 6538; ± SD; Co-trimoxazole as sulfamethoxazole/trimethoprim; read-out: MIC
[2] = system: clinical strains of Enterococcus sp.; test: MIC on clinical Enterococcus strains; assay type: cell-based
[3] = system: C. diphtheriae; test: MIC determination, reference strain (microdilution); assay type: cell-based; conditions: Corynebacterium diphtheriae; C. diphtheriae; Co-trimoxazole as sulfamethoxazole/trimethoprim; read-out: MIC
[4] = system: B. subtilis ATCC 6633; test: as above; assay type: cell-based; conditions: Bacillus subtilis, ATCC6633; B. subtilis ATCC 6633; Co-trimoxazole as sulfamethoxazole/trimethoprim; read-out: MIC
[5] = DPPH assay; conditions: DPPH radical scavenging; 40 min, room temperature
Description: The DPPH assay was performed spectrophotometrically. The amount of 30 µL of different concentrations of samples, dissolved in methanol/DMSO (9/1 v/v), was mixed with 170 µL of 0.06 mM DPPH methanolic solution and completed with methanol to a final volume of 300 µL. DPPH methanolic solution with methanol/DMSO (9/1 v/v) was used as a control. After 40 min of incubation at room temperature in the dark, the absorbance was analyzed at λ = 510 nm by a 96-well microplate reader (Epoch, BioTek System, Santa Clara, CA, USA). Ascorbic acid was used as a standard.
DPPH inhibition was calculated by the following equation:DPPH Inhibition (%) = [Acontrol − Asample)/Acontrol] × 100%
(§1) IC50 values of the samples were calculated using program GraFit v. 7.0 (Erithacus Software). The analysis was performed three times, with tree replications in each (n = 9). Statistical analysis was performed with one-way ANOVA with Tuckey’s post-hoc test.

[6] = system: HeLa cells; test: MTT assay; assay type: cell-based, human; conditions: for IC50: HeLa, MTT, 24 h treatment; for Selectivity index (SI): IC50 HEK-293 / IC50 HeLa
[7] = system: E. hirae ATCC 10541; test: MIC determination, reference strain (microdilution); assay type: cell-based; conditions: Enterococcus hirae, ATCC10541; E. hirae ATCC 10541; Co-trimoxazole as sulfamethoxazole/trimethoprim; read-out: MIC
[8] = system: SKOV-3 cells; test: MTT assay; assay type: cell-based, human; conditions: for IC50: Homo sapiens, SK-OV-3, SKOV-3, MTT, 24 h treatment, read-out: IC50; for Selectivity index (SI): IC50 HEK-293 / IC50 SKOV-3
[9] = system: MCF-7 cells; test: MTT assay; assay type: cell-based, human; conditions: for IC50: Homo sapiens, MCF7, MCF-7, MTT, 24 h treatment, read-out: IC50; for Selectivity index (SI): IC50 HEK-293 / IC50 MCF-7
[10] = system: E. coli ATCC 8739; test: MIC determination, reference strain (microdilution); assay type: cell-based; conditions: Escherichia coli, ATCC8739; E. coli ATCC 8739; Co-trimoxazole as sulfamethoxazole/trimethoprim; read-out: MIC
[11] = system: clinical methicillin-resistant S. aureus (MRSA) strains; test: MIC on clinical MRSA strains; assay type: cell-based; conditions: Staphylococcus aureus, MRSA / VISA; strains MRSA12673, MRSA21804, MRSA18532, MRSA12647 and MRSAN315 VISA
Text: In the next step, we evaluated the compounds on clinical methicillin-resistant S. aureus (MRSA) strains (Figure 2) and methicillin-resistant coagulase-negative Staphylococcus (MRCNS) (Figure 3). The group of CNS includes nonpathogenic or opportunistic pathogens, while coagulase-positive staphylococci are represented by S. aureus. About 30% of the human population carries S. aureus in the upper respiratory tract. Infections caused by S. aureus include all purulent skin conditions (boils, abscesses, folliculitis) and nosocomial infections. The strains isolated from hospitals are usually antibiotic-resistant, where MRSA strains are the majority. Staphylococcus epidermidis (like other coagulase-negative Staphylococcus) is included in the microflora of human skin and can easily cause surface contamination after surgical procedures.
Sterile sheep blood defibrinated (GrasoBiotech). Co-trimoxazole (composition sulfamethoxazole 400 mg/trimethoprim 80 mg; WZF Polfa Poland). Ketoconazole (WZF Polfa Poland). Bacteria: Enterococcus hirae ATCC 10541 and Enterococcus faecalis ATCC 51299, Staphylococcus epidermidis ATCC 14990, Staphylococcus aureus ATCC 6538, clinical strains Staphylococcus aureus MRSA, clinical strains Staphylococcus sp. […]

[12] = ABTS assay; conditions: ABTS radical scavenging; 10 min, 30 °C
Description: The ABTS assay was performed spectrophotometrically. […] ABTS solution with methanol/DMSO (9/1 v/v) was used as a control. After 10 min of incubation at 30 °C in the dark, the absorbance was analyzed at λ = 750 nm by a 96-well microplate reader (Epoch, BioTek System, Santa Clara, CA, USA). Ascorbic acid was used as a standard.
ABTS inhibition was calculated by the following equation:ABTS Inhibition (%) = [Acontrol − Asample)/Acontrol] × 100%
as §1

[13] = system: C. albicans ATCC 10231; test: MIC determination, reference fungal strain (microdilution); assay type: cell-based; conditions: Candida albicans, ATCC10231; C. albicans ATCC 10231; read-out: MIC
[14] = in vitro; conditions: sheep, defibrinated sheep blood diluted 1:9 v/v with PBS, pH 7
[15] = system: E. faecalis ATCC 51299; test: MIC determination, reference strain (microdilution); assay type: cell-based; conditions: Enterococcus faecalis, ATCC51299; E. faecalis ATCC 51299; Co-trimoxazole as sulfamethoxazole/trimethoprim; read-out: MIC
[16] = system: HEK-293 cells; test: MTT assay, noncancerous cells; assay type: cell-based; conditions: Homo sapiens, HEK293; HEK-293; MTT, 24 h treatment; read-out: IC50
[17] = system: S. epidermidis ATCC 14990; test: MIC determination, reference strain (microdilution); assay type: cell-based; conditions: Staphylococcus epidermidis, ATCC14990; S. epidermidis ATCC 14990; Co-trimoxazole as sulfamethoxazole/trimethoprim; read-out: MIC
[18] = system: Staphylococcus sp. and Enterococcus sp.; test: MIC, summary statements on reference Gram-positive cocci; assay type: cell-based; conditions: Staphylococcus and Enterococcus species, reference Gram-positive cocci (range over strains)
Description: Sterile sheep blood defibrinated (GrasoBiotech). Co-trimoxazole (composition sulfamethoxazole 400 mg/trimethoprim 80 mg; WZF Polfa Poland). Ketoconazole (WZF Polfa Poland). Bacteria: Enterococcus hirae ATCC 10541 and Enterococcus faecalis ATCC 51299, Staphylococcus epidermidis ATCC 14990, Staphylococcus aureus ATCC 6538, clinical strains Staphylococcus aureus MRSA, clinical strains Staphylococcus sp. (MRCNS), clinical strain Staphylococcus epidermidis MRSE, clinical strain Enterococcus sp., Corynebacterium diphtheriae ZMF, Bacillus subtilis ATCC 6633, Escherichia coli ATCC 8739, Candida albicans ATCC 10231. Brain-heart infusion broth (BHI, Becton Dickinson) for Enterococcus hirae ATCC 10541 and Enterococcus faecalis ATCC 51299, BHI supplement with 10% bovine serum for Bacillus subtilis, Corynebacterium diphtheriae ZMF, Staphylococcus epidermidis ATCC 14990, Staphylococcus aureus ATCC 6538, clinical strains Staphylococcus aureus MRSA, clinical strains Staphylococcus sp. (CNS), clinical strain Staphylococcus epidermidis MRSE grew in Mueller-Hinton broth (MH cation-adjusted, Becton Dickinson) in an aerobic atmosphere at 37 °C for 48 h, in an aerobic atmosphere at 37 °C for 72 h. Candida albicans grew in Sabourauda broth (Sb, Becton Dickinson), in an aerobic atmosphere at 37 °C for 72 h. After determination of the bacterial viability, BHI blood agar plates, MH agar plates, and Sb agar plates were used.
The MIC determination for the reference and clinical strains was performed based on the methodology described by Kula et al.. The dry test samples were dissolved in dimethyl sulfoxide (DMSO) and diluted in water, resulting in a finale concentration of about 500 µg/mL. These solutions were diluted and added to the first well of each microtiter line. Dilution in geometric progression was done by transferring the mixture/dilution (100 μL) from the first to the twelfth well. An aliquot (100 μL) was discarded from the twelfth well. The final concentration of the samples used in the antimicrobial activity assay ranged from 125 to 0.006 µg/mL. Co-trimoxazole (for bacteria), with the composition sulfamethoxazole 400 mg/trimethoprim 80 mg was used as a reference compound in the concentration range of 20 000/4000 to 1/0.2 µg/mL. Ketoconazole (for fungi) was used as a reference compound in the concentration range of 125 to 0.006 µg/mL. Tests were incubated in adequate conditions described by Kula et al.. Diluent concentration had no effect on the activity of the tested compounds. All experiments were carried out three times.

[19] = system: cancer cells (HeLa, SKOV-3, MCF-7); test: MTT assay, summary statements on the cancer cells; assay type: cell-based; conditions: Homo sapiens, cell line not specified
[20] = Homo sapiens, 24 h, read-out: IC50

MIC [1] [µg/mL]	MIC [3] [µg/mL]	MIC [4] [µg/mL]	IC50 DPPH [5] [µg/mL]	IC50 [6, 20] [µg/mL]	MIC [7] [µg/mL]	IC50 [8] [µg/mL]	IC50 [9] [µg/mL]	MIC [10] [µg/mL]	MIC [11] [µg/mL]	IC50 ABTS [12] [µg/mL]	MIC [13] [µg/mL]	MIC [15] [µg/mL]	MIC [17] [µg/mL]	MIC [18] [µg/mL]	SMILES	Selectivity index (SI) [6]	Selectivity index (SI) [8]	Selectivity index (SI) [9]	IC50 [16] [µg/mL]	other results
2 ± 0.29 (≈ 3.61 µM)	> 125	62.5 ± 0.29 (≈ 113 µM)	652.93 ± 2.39 (≈ 1180 µM)	12 ± 0.44 (≈ 21.6 µM)	4 ± 0.15 (≈ 7.21 µM)	11 ± 0.5 (≈ 19.8 µM)	14.8 ± 0.66 (≈ 26.7 µM)	> 125	> 125	620.39 ± 1.29 (≈ 1120 µM)	> 125	4 ± 0.15 (≈ 7.21 µM)	2 ± 0.58 (≈ 3.61 µM)	–	Cc1cc(S(=O)(=O)NC(=O)/C=C/c2ccc(F)cc2)c(SCc2cc3c(cc2Cl)OCO3)cc1Cl [Compound 17b, (E)–N–{4–Chloro–2–[(6–chlorobenzo[d][1,3]dioxol–5–yl)methylthio]–5–methylphenylsulfonyl}–3–(4–fluorophenyl)acrylamide]	0.6	0.6	0.5	7.17 ± 0.44 (≈ 12.9 µM)	MIC ([2]; Enteroccoccus sp. 3934825): > 125 µg/mL; MIC ([2]; Enterococcus sp. 12848): > 125 µg/mL; MIC ([2]; Enterococcus sp. 3937152, read-out: MIC): > 125 µg/mL; hemolysis at 24 h, 62.5 µg/mL [14]: 9%
1 ± 0.29 (≈ 1.63 µM)	> 125	62.5 ± 0.29 (≈ 102 µM)	790.52 ± 1.44 (≈ 1280 µM)	< 10	2 ± 0.58 (≈ 3.25 µM)	13.15 ± 0.05 (≈ 21.4 µM)	13 ± 0.66 (≈ 21.1 µM)	> 125	8 to 16 (≈ 13 to 26 µM)	569.99 ± 7.9 (≈ 926 µM)	> 125	2 ± 0.58 (≈ 3.25 µM)	1 ± 0.58 (≈ 1.63 µM)	1 to 2 (≈ 1.63 to 3.25 µM)	Cc1cc(S(=O)(=O)NC(=O)/C=C/c2ccc(Br)cc2)c(SCc2cc3c(cc2Cl)OCO3)cc1Cl [Compound 17a, (E)-3-(4-Bromophenyl)-N-{4-chloro-2-[(6-chlorobenzo[d][1,3]dioxol-5-yl)methylthio]-5-methylphenylsulfonyl}acrylamide]	0.8	0.5	0.5	6.49 ± 0.46 (≈ 10.5 µM)	IC50 ([19]; MTT): < 10 µg/mL; IC50 ([19]; µg/mL bound converted): ≤ 20 µM; IC50 [6]: 8.49 ± 0.49 µg/mL (≈ 13.8 µM)
1 ± 0.29 (≈ 1.7 µM)	62.5 ± 0.29 (≈ 106 µM)	62.5 ± 0.29 (≈ 106 µM)	945.37 ± 0.14 (≈ 1610 µM)	13.47 ± 0.13 (≈ 22.9 µM)	2 ± 0.58 (≈ 3.41 µM)	16.6 ± 0.69 (≈ 28.3 µM)	30.7 ± 2.49 (≈ 52.3 µM)	> 125	–	697.68 ± 1.26 (≈ 1190 µM)	> 125	2 ± 0.58 (≈ 3.41 µM)	1 ± 0.29 (≈ 1.7 µM)	1 to 2 (≈ 1.7 to 3.41 µM)	Cc1cc(S(=O)(=O)NC(=O)/C=C/c2ccc(Br)cc2)c(SCc2cccc3ccccc23)cc1Cl [Compound 16b, (E)–3–(4–Bromophenyl)–N–{[4–chloro–5–methyl–2–(naphthalen–1–yl)methylthio]phenylsulfonyl}acrylamide]	1.2	0.9	0.5	15.7 ± 1.62 (≈ 26.7 µM)	hemolysis at 24 h, 31.25 µg/mL [14]: 12 to 20%

Reference: paper PMC10096175, “An In Vitro Antimicrobial, Anticancer and Antioxidant Activity of N–[(2–Arylmethylthio)phenylsulfonyl]cinnamamide Derivatives” (Molecules, 2023)
